Tested on: A549 cells (KRAS G12S mutant)
Test: Cell proliferation inhibition experiment, 3D spheroid, CellTiter-Glo, A549
Format: cell-based, human
Details: Homo sapiens, A549, 120 h, A549 (KRAS G12S mutant) 3D spheroid, 5 days with compound, CellTiter-Glo; read-out: A549 IC50
In short: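 First, H358 (800/well) or A549 (400/well) cells are plated in 2% FBS medium and left overnight to form spheroids. Next, compound is added as a 3.16-fold gradient at 0.1% DMSO for 5 days. Finally, CellTiter-Glo signal is read and IC50 derived by four-parameter fitting.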

IC50: 3.06 µM
Compound: C=CC(=O)N1CCN2C(=O)c3c(N4CCN(C)C[C@@H]4C)nc(-c4c(F)ccc(Cl)c4O)c(Cl)c3OC[C@H]2C1 [Z342, (6aR)-8-acryloyl-4-chloro-3-(3-chloro-6-fluoro-2-hydroxyphenyl)-1-((S)-2,4-dimethylpiperazin-1-yl)-6,6a,7,8,9,10-hexahydro-12H-pyrazino[2,1-c]pyrido[3,4-f][1,4]oxazepin-12-one]
